Tested on: Halo-PCNA U2OS cells
Test: Cell cycle block, phases assigned by PCNA-based machine learning model
Conditions: 2 mM Thymidine (S-phase block) or RO-3306 (G2-M block) per FIG. 20B legend
Experimental: Time-lapse microscopy was conducted on Halo-PCNA labeled with 50 nM JFX650, to achieve near-saturating labeling, for 12 hours at 12 frames per hour (FIG. 21A). A machine learning model was then trained using both manually assigned cell stages and time-based progression resulting in both a G1, early S, mid S, late S, G2 and mitosis classifier as well as a regression prediction across the continuum of the cell cycle (FIG. 21B). The predicted cell cycle classification performed well as compared to manual annotation (FIG. 21C). Clear progression of individual cells through the cell cycle was observed when regression prediction was plotted across the time series (FIG. 21D). […] When cells in each cell phase were analyzed separately, it became apparent that the slow-moving population of PCNA was exclusively found in cell predicted to be in S-phase and that there was a marked decrease in the fast-moving population (FIG. 20E). Mean diffusion coefficient of PCNA was then measured for 4,081 individual cells to characterize heterogeneity across the cell population, which is described in large part by cell cycle (FIG. 20F).
Cell cycle as provided above can be automatically determined using an image (e.g., an image of JF549-labeled PCNA). […]

| Structure (SMILES) | fraction of cells assigned to the respective cell phase |
| --- | --- |
| Cc1cn([C@H]2C[C@H](O)[C@@H](CO)O2)c(=O)[nH]c1=O [thymidine] | expected enrichment |
| O=C1NC(=NCc2cccs2)S/C1=C\c1ccc2ncccc2c1 [RO-3306] | expected enrichment |

From patent US20260160663A1, “OBLIQUE LINE SCANNER SYSTEMS AND METHODS FOR HIGH THROUGHPUT SINGLE MOLECULE TRACKING IN LIVING CELLS” (EIKON THERAPEUTICS, INC., priority 2022, published 2026)
